Key:
[1] = target: T1, DDB1-CDK12/Cyclin K ternary complex (Homo sapiens, UniProt Q16531+Q9NYV4); test: NanoBRET fold-change assay (HaloTag_CDK12 / NanoLuc_DDB1 in HEK293T); assay type: cell-based; settings: 10 μM compound, 10 minutes
T1 construct: expressed in transfected cells; host or cells: HEK293T wildtype cells, transient PEI transfection
How it was run: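 HEK293T cells transiently co-transfected with HaloTag_CDK12 and NanoLuc_DDB1, labelled overnight with 100 nM HaloTag 618 ligand (DMSO no-ligand control), then treated with compound at 10 μM final for 10 min at room temperature. BRET read as 460 nm donor and 647 nm acceptor emission after Nano-Glo substrate; reported as fold change.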

[2] = target: T1, DDB1-CDK12/Cyclin K ternary complex; test: NanoBRET EC50 assay (HaloTag_CDK12 / NanoLuc_DDB1 in HEK293T); assay type: cell-based; settings: for EC50 / NanoBRET EC50 Activity Class: 10-point titration from 20 μM, HEK293T; for EC50: read-out: NanoBRET EC50 Activity Class
Protocol: This assay measures the interaction/recruitment of CDK12/Cyclin K to DDB1, mechanistically validating the molecular glue pharmacology.
HEK293T wildtype cells are seeded 800 k cells/well (DMEM+10% FBS+1% PS) in a 6-well plate and allowed to attach for ˜7 hours followed by a transient transfection of 1.5 μg HaloTag_CDK12 Plasmid [Table 1] and 0.15 μg NanoLuc_DDB1 plasmid [Table 1] per well using PEI. Cells are incubated at 37° C., 5% CO2, harvested after 24 hours and resuspended in assay media (Opti-MEM Reduced serum media, no phenol red, 4% FBS, 1% PS). Cells are adjusted to 2.3×10^5 cells/ml and treated with HaloTag 618 Ligand at 100 nM or DMSO. 8000 cells are seeded per well in triplicates per compound in a white-walled 384-well plate, one negative control treated with DMSO instead of HaloTag 618 Ligand is seeded in triplicates and the 384-well plate is incubated at 37° C., 5% CO2 overnight. Compound stock solutions are prepared in Opti-MEM−/− (Opti-MEM I Reduced serum media, no phenol red) at 8× and used to treat the cells at a final concentration of 1× at 10 μM. Cells and compounds are incubated for 10 minutes at room temperature followed by addition of NanoBRET Nano-Glo substrate following manufacturer's protocols. The plate is shaken for 30 sec followed by immediate measurement of donor emission (NanoBRET Blue at 460 nm) and acceptor emission (BRET Deep Red at 647 nm) for 0.5 s.
The assay setup is identical to “NanoBRET fold change experimental setup”. Instead of treating cells in […] with 10 μM compound, a 10-point titration starting at 20 μM is performed with a dilution factor of 1:4, covering α range of 20000 nM-0.076 nM.

[3] = system: KBM7 cells (wild-type); test: KBM7 CTG EC50 assay (UBE2M wild-type); assay type: cell-based, human; settings: for EC50: Homo sapiens, KBM-7, 72 h incubation, CellTiter-Glo, read-out: KBM7 CTG EC50 (UBE2M wild-type) Activity Class; for Ratio UBE2M WT to KO: ratio of anti-proliferative activity in KBM7 wild-type versus UBE2M knock-out cells (fold)
How it was run: (§1)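 Wild-type KBM7 cells, or KBM7 cells with a hypomorphic UBE2M mutation that impairs Cullin-RING ligase activity, were treated for 72 h with compounds in a 10-point, 1:4 titration (0 to 20 μM). Viability was read by CellTiter-Glo 2.0 luminescence.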

[4] = system: KBM7 cells harboring a hypomorphic UBE2M mutation; test: KBM7 CTG EC50 assay (UBE2M knock-out); assay type: cell-based; settings: Homo sapiens, KBM-7; 72 h incubation, CellTiter-Glo; read-out: KBM7 CTG EC50 (UBE2M knock-out) Activity Class
How it was run: as §1

[5] = system: CCNK; test: NanoLuc-CCNK degradation assay (HEK293T_Nluc_CCNK-tagged cells); assay type: cell-based; settings: for DC50 / NanoLuc-CCNK degradation DC50 Activity Class: 4 h incubation, HEK293T_Nluc_CCNK-tagged cells; for DC50: read-out: NanoLuc-CCNK degradation DC50 Activity Class
How it was run: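 HEK293T cells with nanoluciferase knocked in at the N-terminus of endogenous CCNK (CRISPR) exposed to a 10-point titration (0 to 10 μM, 1:4) in Opti-MEM I + 4% FBS for 4 h. Nano-Glo substrate then added and luminescence read as a measure of Cyclin K abundance.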

T1 sequence (Q9NYV4 whole entry): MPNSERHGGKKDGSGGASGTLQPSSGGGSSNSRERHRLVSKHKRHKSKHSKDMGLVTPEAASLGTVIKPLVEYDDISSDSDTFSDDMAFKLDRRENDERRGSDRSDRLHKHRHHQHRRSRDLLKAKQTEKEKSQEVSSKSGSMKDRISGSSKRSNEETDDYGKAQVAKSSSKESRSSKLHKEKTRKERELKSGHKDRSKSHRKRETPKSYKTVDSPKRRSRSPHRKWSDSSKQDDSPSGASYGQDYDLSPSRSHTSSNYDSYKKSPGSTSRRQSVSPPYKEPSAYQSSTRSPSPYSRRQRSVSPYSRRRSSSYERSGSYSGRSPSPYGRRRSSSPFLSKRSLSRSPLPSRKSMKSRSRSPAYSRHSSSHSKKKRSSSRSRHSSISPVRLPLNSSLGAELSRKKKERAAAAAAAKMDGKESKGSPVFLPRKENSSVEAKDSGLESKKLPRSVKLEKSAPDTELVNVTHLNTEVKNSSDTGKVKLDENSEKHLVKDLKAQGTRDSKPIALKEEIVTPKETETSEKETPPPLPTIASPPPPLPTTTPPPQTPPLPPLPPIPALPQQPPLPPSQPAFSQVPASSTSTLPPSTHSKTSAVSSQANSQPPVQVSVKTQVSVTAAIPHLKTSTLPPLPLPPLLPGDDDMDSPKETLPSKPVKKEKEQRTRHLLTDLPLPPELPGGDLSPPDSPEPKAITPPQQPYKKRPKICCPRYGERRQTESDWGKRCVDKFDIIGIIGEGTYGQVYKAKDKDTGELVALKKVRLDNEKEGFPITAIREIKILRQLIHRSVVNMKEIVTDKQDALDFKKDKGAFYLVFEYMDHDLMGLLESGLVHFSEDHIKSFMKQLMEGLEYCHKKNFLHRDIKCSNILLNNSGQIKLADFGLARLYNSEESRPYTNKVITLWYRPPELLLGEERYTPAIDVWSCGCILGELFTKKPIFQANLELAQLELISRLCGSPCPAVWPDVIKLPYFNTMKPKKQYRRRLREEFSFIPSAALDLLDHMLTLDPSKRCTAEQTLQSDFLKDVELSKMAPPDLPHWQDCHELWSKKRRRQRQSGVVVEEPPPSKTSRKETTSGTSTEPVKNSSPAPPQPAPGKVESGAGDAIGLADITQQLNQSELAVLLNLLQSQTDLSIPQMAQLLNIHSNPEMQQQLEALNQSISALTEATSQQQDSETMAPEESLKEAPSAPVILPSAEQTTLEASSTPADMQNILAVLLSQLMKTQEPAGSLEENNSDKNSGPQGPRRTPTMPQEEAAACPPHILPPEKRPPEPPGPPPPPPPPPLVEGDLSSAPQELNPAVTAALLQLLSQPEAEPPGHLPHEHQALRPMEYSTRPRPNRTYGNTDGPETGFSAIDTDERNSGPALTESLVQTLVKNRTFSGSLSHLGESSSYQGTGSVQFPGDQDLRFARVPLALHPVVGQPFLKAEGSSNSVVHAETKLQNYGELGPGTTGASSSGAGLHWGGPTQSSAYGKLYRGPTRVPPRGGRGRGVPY
T1 sequence (Q16531 whole entry): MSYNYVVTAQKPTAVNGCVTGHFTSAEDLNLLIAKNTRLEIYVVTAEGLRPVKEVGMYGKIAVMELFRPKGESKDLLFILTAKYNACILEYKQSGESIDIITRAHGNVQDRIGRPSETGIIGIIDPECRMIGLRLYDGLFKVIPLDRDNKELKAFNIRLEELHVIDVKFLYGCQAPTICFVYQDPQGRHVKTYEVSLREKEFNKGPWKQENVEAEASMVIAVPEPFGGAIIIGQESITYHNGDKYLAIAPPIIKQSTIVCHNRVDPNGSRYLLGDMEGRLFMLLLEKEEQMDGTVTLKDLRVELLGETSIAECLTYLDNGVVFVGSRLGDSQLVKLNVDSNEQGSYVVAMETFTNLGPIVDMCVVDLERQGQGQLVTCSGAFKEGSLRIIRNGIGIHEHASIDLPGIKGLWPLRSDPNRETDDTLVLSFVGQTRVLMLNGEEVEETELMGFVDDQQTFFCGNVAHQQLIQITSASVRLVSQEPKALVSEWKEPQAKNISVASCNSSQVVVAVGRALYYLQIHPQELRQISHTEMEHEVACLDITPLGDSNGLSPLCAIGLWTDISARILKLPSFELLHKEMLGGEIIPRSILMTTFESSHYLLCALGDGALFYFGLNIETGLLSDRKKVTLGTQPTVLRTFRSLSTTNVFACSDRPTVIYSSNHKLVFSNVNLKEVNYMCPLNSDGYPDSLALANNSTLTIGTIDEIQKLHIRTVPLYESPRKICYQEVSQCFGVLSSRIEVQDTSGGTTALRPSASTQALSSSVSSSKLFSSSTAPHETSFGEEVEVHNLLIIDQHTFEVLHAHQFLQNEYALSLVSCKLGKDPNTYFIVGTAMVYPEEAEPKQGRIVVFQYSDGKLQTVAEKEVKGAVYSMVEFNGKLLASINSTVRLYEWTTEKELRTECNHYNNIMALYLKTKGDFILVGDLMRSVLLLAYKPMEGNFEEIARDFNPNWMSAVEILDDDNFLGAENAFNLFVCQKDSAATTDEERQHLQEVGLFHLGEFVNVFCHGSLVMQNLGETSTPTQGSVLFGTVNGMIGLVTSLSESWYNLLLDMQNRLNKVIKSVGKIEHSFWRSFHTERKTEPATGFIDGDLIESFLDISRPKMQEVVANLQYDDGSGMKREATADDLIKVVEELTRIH
T1 sequence (O75909 whole entry partner): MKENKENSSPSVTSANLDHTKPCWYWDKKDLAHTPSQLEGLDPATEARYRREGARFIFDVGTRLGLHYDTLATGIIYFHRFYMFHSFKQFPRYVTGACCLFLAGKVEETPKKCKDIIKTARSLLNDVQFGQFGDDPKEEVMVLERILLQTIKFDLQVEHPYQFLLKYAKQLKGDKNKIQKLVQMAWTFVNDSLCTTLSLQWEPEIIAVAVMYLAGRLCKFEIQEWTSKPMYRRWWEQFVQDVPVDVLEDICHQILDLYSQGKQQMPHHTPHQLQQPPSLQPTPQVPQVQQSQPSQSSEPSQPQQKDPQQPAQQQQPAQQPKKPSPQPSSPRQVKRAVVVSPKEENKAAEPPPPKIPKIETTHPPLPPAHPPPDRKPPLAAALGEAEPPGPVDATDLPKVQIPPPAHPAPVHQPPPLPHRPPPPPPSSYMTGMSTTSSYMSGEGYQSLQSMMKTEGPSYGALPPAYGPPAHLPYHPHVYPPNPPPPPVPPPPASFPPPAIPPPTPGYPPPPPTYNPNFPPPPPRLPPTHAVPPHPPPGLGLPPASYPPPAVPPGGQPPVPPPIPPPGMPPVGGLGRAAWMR

Row | SMILES | NanoBRET fold-change Activity Class [1] | EC50 [2] | EC50 [3] | Ratio UBE2M WT to KO [3] | EC50 [4] | DC50 [5] | NanoBRET EC50 Activity Class [2] | NanoLuc-CCNK degradation DC50 Activity Class [5] | activity in NanoBRET assay (ternary complex formation), in words [2] | activity in KBM7 cytotoxicity assay, in words ([3]; KBM7) | activity in NanoLuc CCNK degradation assay, in words [5]
1 | Cc1ccc2c(CC(=O)Nc3ncc(Cl)s3)coc2c1C [Example 3-3, N-(5-chlorothiazol-2-yl)-2-(6,7-dimethylbenzofuran-3-yl)acetamide] | D (1-2 fold increase) | > 10000 nM | ≤ 250 nM | 23.5 | 1000 to 10000 nM | > 10000 nM | – | – | – | – | –
2 | Cc1ccc2c(CC(=O)Nc3cc(Br)[nH]n3)coc2c1C [Example 3-47, N-(5-bromo-1H-pyrazol-3-yl)-2-(6,7-dimethylbenzofuran-3-yl)acetamide] | A (greater than 4-fold increase) | – | ≤ 250 nM | 15.7 | 500 to 1000 nM | ≤ 100 nM | B (0.50 μM≤EC50≤0.25 μM) | – | – | – | –
3 | O=C(Cc1c[nH]c2ncccc12)Nc1ncc(C(F)(F)F)s1 [Example 3-38, 2-(1H-pyrrolo[2,3-b]pyridin-3-yl)-N-(5-(trifluoromethyl)thiazol-2-yl)acetamide] | B (3-4 fold increase) | – | 500 to 1000 nM | >10 | > 10000 nM | > 10000 nM | C (1.0 μM≤EC50<0.50 μM) | – | – | – | –
4 | Cc1cc(N2CC(C(=O)Nc3ncc(C(F)(F)F)s3)CC2=O)ccc1F (stereo not drawn) [Example 3-17, 1-(4-fluoro-3-methylphenyl)-5-oxo-N-(5-(trifluoromethyl)thiazol-2-yl)pyrrolidine-3-carboxamide] | A (greater than 4-fold increase) | – | ≤ 250 nM | 17.0 | 250 to 500 nM | ≤ 100 nM | B (0.50 μM≤EC50≤0.25 μM) | – | – | – | –
5 | Cc1cc(NC(=O)Cc2coc3c(C)c(C)ccc23)n[nH]1 [Example 3-44, 2-(6,7-dimethylbenzofuran-3-yl)-N-(5-methyl-1H-pyrazol-3-yl)acetamide] | A (greater than 4-fold increase) | ≤ 250 nM | ≤ 250 nM | 34.4 | 250 to 500 nM | – | – | B (0.50 μM≤DC50<0.10 μM) | – | – | –
6 | Cc1ccc2c(CC(=O)Nc3ncc(C4CC4)s3)coc2c1C [Example 3-42, N-(5-cyclopropylthiazol-2-yl)-2-(6,7-dimethylbenzofuran-3-yl)acetamide] | A (greater than 4-fold increase) | – | ≤ 250 nM | 8.5 | ≤ 250 nM | ≤ 100 nM | C (1.0 μM≤EC50<0.50 μM) | – | – | – | –
7 | O=C(Nc1ncc(C(F)(F)F)s1)C1CC(=O)N(c2cccc(Cl)c2)C1 (stereo not drawn) [Example 3-19, 1-(3-chlorophenyl)-5-oxo-N-(5-(trifluoromethyl)thiazol-2-yl)pyrrolidine-3-carboxamide] | A (greater than 4-fold increase) | – | ≤ 250 nM | 9.1 | ≤ 250 nM | ≤ 100 nM | B (0.50 μM≤EC50≤0.25 μM) | – | – | – | –
8 | Cc1cnc(NC(=O)Cc2coc3c(C)c(C)ccc23)s1 [Example 3-1, 2-(6,7-dimethylbenzofuran-3-yl)-N-(5-methylthiazol-2-yl)acetamide] | B (3-4 fold increase) | ≤ 250 nM | ≤ 250 nM | 25.3 | 500 to 1000 nM | – | – | B (0.50 μM≤DC50<0.10 μM) | – | – | –
9 | COc1cc(Br)cn2cc(CC(=O)Nc3ncc(C(F)(F)F)s3)nc12 [Example 3-9, 2-(6-bromo-8-methoxyimidazo[1,2-a]pyridin-2-yl)-N-(5-(trifluoromethyl)thiazol-2-yl)acetamide] | A (greater than 4-fold increase) | ≤ 250 nM | ≤ 250 nM | 2.0 | ≤ 250 nM | ≤ 100 nM | – | – | exceptional activity | extremely potent activity | exceptional activity
10 | Cc1ccc2c(CC(=O)Nc3ccc(Br)cn3)coc2c1C [Example 3-53, N-(5-bromopyridin-2-yl)-2-(6,7-dimethylbenzofuran-3-yl)acetamide] | B (3-4 fold increase) | > 10000 nM | ≤ 250 nM | 22.7 | 1000 to 10000 nM | – | – | B (0.50 μM≤DC50<0.10 μM) | – | – | –
11 | CC(C)c1cnc(NC(=O)Cc2cn3cc(F)ccc3n2)s1 [Example 3-4, 2-(6-fluoroimidazo[1,2-a]pyridin-2-yl)-N-(5-isopropylthiazol-2-yl)acetamide] | A (greater than 4-fold increase) | ≤ 250 nM | ≤ 250 nM | 82.6 | 1000 to 10000 nM | – | – | B (0.50 μM≤DC50<0.10 μM) | – | – | –
12 | COc1cc2ncn(CCC(=O)Nc3ncc(C(F)(F)F)s3)c(=O)c2cc1OC [Example 3-64, 3-(6,7-dimethoxy-4-oxoquinazolin-3(4H)-yl)-N-(5-(trifluoromethyl)thiazol-2-yl)propanamide] | A (greater than 4-fold increase) | > 10000 nM | ≤ 250 nM | 21.9 | 500 to 1000 nM | ≤ 100 nM | – | – | – | – | –
13 | O=C(Nc1ncc(C(F)(F)F)s1)C1CC(=O)N(c2cc(F)ccc2F)C1 (stereo not drawn) [Example 3-22, 1-(2,5-difluorophenyl)-5-oxo-N-(5-(trifluoromethyl)thiazol-2-yl)pyrrolidine-3-carboxamide] | B (3-4 fold increase) | > 10000 nM | ≤ 250 nM | >10 | > 10000 nM | > 10000 nM | – | – | – | – | –
14 | CC(C(=O)Nc1ncc(C(F)(F)F)s1)c1cnc2ccccc2c1 (stereo not drawn) [Example 3-35, 2-(quinolin-3-yl)-N-(5-(trifluoromethyl)thiazol-2-yl)propanamide] | A (greater than 4-fold increase) | ≤ 250 nM | ≤ 250 nM | 15.1 | ≤ 250 nM | ≤ 100 nM | – | – | – | – | –

From US20240132485A1, “HETEROCYCLIC CULLIN RING UBIQUITIN LIGASE COMPOUNDS AND USES THEREOF” (CEMM - FORSCHUNGSZENTRUM FÜR MOLEKULARE MEDIZIN GMBH, priority 2020, published 2024)
